Results published in US4820727A, “N-acyl-N-naphthoylglycines as aldose reductase inhibitors” (American Home Products Corporation, priority 1987, dated 1989).

How the values were obtained:
aldose reductase = molecular target: T1, aldose reductase (Bos taurus, UniProt P16116); experiment: In vitro aldose reductase inhibition (modified Hayman and Kinoshita procedure, enzyme from bovine lens); assay type: biochemical; conditions: for inhibition at 0.04 µM: read-out: % Inhibition IN VITRO 4 × 10^-8 M; for inhibition at 0.1 µM: read-out: % Inhibition IN VITRO 10^-7 M; for inhibition at 10 µM: read-out: % Inhibition IN VITRO 10^-5 M; for inhibition at 1 µM: read-out: % Inhibition IN VITRO 10^-6 M
T1 construct: preparation of the enzyme from bovine lens; from tissue; host or cells: bovine lens
Description: In the present case the procedure of Hayman and Kinoshita was modified in that the final chromatography step was omitted in the preparation of the enzyme from bovine lens.

dulcitol accumulation = experiment: Galactosemic rats, % lowering of dulcitol (galactitol) accumulation in vivo; parameters: species or system Sprague-Dawley rats; conditions: for % Lowering dulcitol accumulation IN VIVO, D: diaphragm; for % Lowering dulcitol accumulation IN VIVO, D / % Lowering dulcitol accumulation IN VIVO, L: 4 days; for % Lowering dulcitol accumulation IN VIVO, L: lens
Description: Such experiments are exemplified hereinbelow after the listing of the following general comments pertaining to these experiments:
(a) Four or more groups of six male rats, 50-70 g, Sprague-Dawley strain, were used. The first group, the control group, was fed a mixture of laboratory chow (rodent Laboratory Chow, Purina) and glucose at 20% (w/w %) concentration. […] The test compound was either admixed to the diet or administered by gavage. In experiments involving compound administration in the diet, the average dose administered was calculated from the actual food intake of the animals in each group. The concentration of galactose in the diet of the treated groups was the same as that for the untreated galactosemic group.
(b) After four days, the animals were killed by decapitation. The eyeballs were removed and punctured with a razor blade; the freed lenses were rolled gently on filter paper and weighed. The sciatic nerves were dissected as completely as possible and weighed. Both tissues when frozen can be kept up to two weeks before being analyzed for galactitol.
Only two minor reagent changes were made: (a) the rinsing mixture was an aqueous 5% (w/v) trichloroacetic acid solution and (b) the stock solution was prepared by dissolving 25 mg of dulcitol in 100 mL of an aqueous trichloroacetic acid solution. [N.B.: For each experiment the average value found in the tissue from rats fed the glucose diet was subtracted from the individual values found in the corresponding tissue in galactose-fed rats to obtain the amount of polyol accumulated.]
The figures under L, N, and D represent the percentage decrease of galactitol accumulation in the tissues of the lens, sciatic nerve, and diaphragm, respectively, for treated rats as compared to untreated rats.

[1] = test system: Sciatic Nerve Polyol Accumulation; experiment: Two-Week Streptozocin-Diabetic Rat Model, % lowering of sciatic nerve polyol accumulation; assay type: in vivo, Sprague-Dawley rats; conditions: gavage, 14 days
Description: A second in vivo model examined the effect of the compounds of the present invention on sorbitol accumulation in the tissues of 14-day streptozocin (STZ) (Upjohn) diabetic rats.
In each of the studies male Sprague-Dawley rats from Charles River Labs, Kingston, NY, weighing 200 to 250 g, were used. The animals were weighed and observed for 5 days prior to the start of the study.
In each study the rats were randomly assigned by weight into groups of 15 animals except for group I which contained 8 animals. The groups were treated as follows:
Group II: STZ, 110 mg/kg i.p.
Group IV: STZ, 110 mg/kg i.p. followed by various doses of a compound of the present invention given by gavage for 14 days, beginning on the day of induction of diabetes.
Following an overnight fast (water ad lib) the animals in groups II-IV were given by i.p. injection 110 mg STZ per kg body weight. The STZ was dissolved in cold citric acid, 0.03M, pH 4.5 and injected within 5 minutes of being dissolved. Control rats (group I) were injected with buffer only. One hour following the injection, standard laboratory chow (Rodent lab chow 5001, Purina) was placed in the cages.
Two days after STZ injection plasma glucose levels (from the tail vein) were determined following a 4 hour fast. Excluded from the study were animals whose plasma glucose was below 300 mg/dl. Control animals with plasma glucose levels greater than 200 mg/dl were also excluded.
On the morning of the 14th day following STZ injection the animals were fasted 4 hours prior to sacrificing by decapitation. The blood was collected into heparin containing tubes and placed on ice. Both lenses and sciatic nerves were removed immediately, weighed, frozen, and stored at -20° C. until analyzed for sorbitol. The RBCs were collected by centrifugation, the plasma was removed and the cells were washed once with 10 volumes of cold saline. The washed packed RBCs were divided into 1 mL aliquots, extracted with cold perchloric acid and the acid extracts were stored at -20° C. until analyzed for sorbitol.

[2] = test system: Sciatic Nerve Polyol Accumulation; experiment: as above; assay type: in vivo, Sprague-Dawley rats; conditions: gavage, 14 days; remark: listed apart in the source
[3] = 27 mg/kg, N.S. = not significant
[4] = 15 mg/kg, N.S. = not significant
[5] = 5.2 mg/kg, N.S. = not significant

For `COC(=O)N(CC(=O)O)C(=O)c1c(OCC(F)(F)F)ccc2c(C(F)(F)F)c(OC)ccc12` [Example 6, N-[[6-Methoxy-2-(2,2,2-trifluoroethoxy)-5-(trifluoromethyl)-1-naphthalenyl]carbonyl]-N-(methoxycarbonyl)glycine], the inhibition at 0.04 µM (aldose reductase) was 56%, the inhibition at 0.1 µM (aldose reductase) was 83% and the “% Lowering dulcitol accumulation IN VIVO, D” value (dulcitol accumulation; 27 mg/kg) was 49%. The “% Lowering dulcitol accumulation IN VIVO, L” value (dulcitol accumulation; [3]) was “N.S”.

`CCOC(=O)N(CC(=O)O)C(=O)c1c(OCC(F)(F)F)ccc2c(C(F)(F)F)c(OC)ccc12` [Example 7, N-(Ethoxycarbonyl)-N-[[6-methoxy-2-(2,2,2-trifluoroethoxy)-5-(trifluoromethyl)-1-naphthalenyl]carbonyl]glycine] showed an inhibition at 0.04 µM (aldose reductase) of 47%, an inhibition at 10 µM (aldose reductase) of 98% and an inhibition at 1 µM (aldose reductase) of 90%. For the same compound, the inhibition at 0.1 µM (aldose reductase) was 78%, the “% Lowering dulcitol accumulation IN VIVO, D” value (dulcitol accumulation; 27 mg/kg) was 39% and the “% Lowering dulcitol accumulation IN VIVO, L” value (dulcitol accumulation; [3]) was “N.S”.

`CCOC(=O)N(CC(=O)O)C(=O)c1c(F)ccc2c(C(F)(F)F)c(OC)ccc12` [Example 3, N-(Ethoxycarbonyl)-N-[[2-fluoro-6-methoxy-5-(trifluoromethyl)-1-naphthalenyl]carbonyl]glycine] gave an inhibition at 0.04 µM (aldose reductase) of 67%, an inhibition at 10 µM (aldose reductase) of 99% and an inhibition at 1 µM (aldose reductase) of 95%. For the same compound, the inhibition at 0.1 µM (aldose reductase) was 87%, the “% Lowering dulcitol accumulation IN VIVO, D” value (dulcitol accumulation; 15 mg/kg) was 59% and the “% Lowering dulcitol accumulation IN VIVO, D” value (dulcitol accumulation; 25 mg/kg) was 65%. The “% Lowering dulcitol accumulation IN VIVO, L” value (dulcitol accumulation; [4]) was “N.S” and the “% Lowering dulcitol accumulation IN VIVO, L” value (dulcitol accumulation; 25 mg/kg, N.S. = not significant) was “N.S”.

For `CCOC(=O)N(CC(=O)O)C(=O)c1c(Br)ccc2c(C(F)(F)F)c(OC)ccc12` [Example 9, N-[[2-Bromo-6-methoxy-5-(trifluoromethyl)-1-naphthalenyl]carbonyl]-N-(ethoxycarbonyl)glycine], the inhibition at 0.04 µM (aldose reductase) was 52%, the inhibition at 10 µM (aldose reductase) was 98% and the inhibition at 1 µM (aldose reductase) was 93%. The inhibition at 0.1 µM (aldose reductase) was 76%, the “% Lowering dulcitol accumulation IN VIVO, D” value (dulcitol accumulation; 43 mg/kg) was 27% and the “% Lowering dulcitol accumulation IN VIVO, L” value (dulcitol accumulation; 43 mg/kg, N.S. = not significant) was “N.S”.

`COC(=O)N(CC(=O)O)C(=O)c1c(Cl)ccc2c(C(F)(F)F)c(OC)ccc12` [Example 4, N-[[2-Chloro-6-methoxy-5-(trifluoromethyl)-1-naphthalenyl]carbonyl]-N-(methoxycarbonyl)glycine] showed an inhibition at 0.04 µM (aldose reductase) of 57%, an inhibition at 10 µM (aldose reductase) of 98% and an inhibition at 1 µM (aldose reductase) of 95%. For the same compound, the inhibition at 0.1 µM (aldose reductase) was 85%, the “% Lowering dulcitol accumulation IN VIVO, D” value (dulcitol accumulation; 26 mg/kg) was 68% and the “% Lowering dulcitol accumulation IN VIVO, L” value (dulcitol accumulation; 26 mg/kg, N.S. = not significant) was “N.S”.

For `COc1ccc2c(C(=S)N(C)CC(=O)O)cccc2c1C(F)(F)F` [Tolrestat, N-[[6-methoxy-5-(trifluoromethyl)-1-naphthalenyl]thioxo-methyl]-N-methylglycine, reference compound], the “% Lowering dulcitol accumulation IN VIVO, L” value (dulcitol accumulation; 9 mg/kg, N.S. = not significant) was “N.S”, the “% Lowering of Sciatic Nerve Polyol Accumulation, Sorbitol (%)” value (from here on “% Lowering … Sorbitol (%)”) ([1]; 6 mg/kg) was 80% and the “% Lowering of Sciatic Nerve Polyol Accumulation, Fructose (%)” value (“% Lowering … Fructose (%)” below) ([2]; 6 mg/kg) was 63%.

Compound `COC(=O)N(CC(=O)O)C(=O)c1c(F)ccc2c(C(F)(F)F)c(OC)ccc12` [Example 1, N-[[2-fluoro-6-methoxy-5-(trifluoromethyl)-1-naphthalenyl]carbonyl]-N-(methoxycarbonyl)glycine] has an inhibition at 0.04 µM (aldose reductase) of 59%, an inhibition at 10 µM (aldose reductase) of 99% and an inhibition at 1 µM (aldose reductase) of 95%. The inhibition at 0.1 µM (aldose reductase) was 86%, the “results in the sciatic nerve compared with tolrestat” value (dulcitol accumulation; 10 mg/kg/day vs tolrestat at 9 mg/kg/day, sciatic nerve) was “comparable results” and the “% Lowering dulcitol accumulation IN VIVO, D” value (dulcitol accumulation; 5 mg/kg) was 52%. The “% Lowering dulcitol accumulation IN VIVO, D” value (dulcitol accumulation; 10 mg/kg) was 62%, the “% Lowering dulcitol accumulation IN VIVO, L” value (dulcitol accumulation; 5 mg/kg, N.S. = not significant) was “N.S” and the “% Lowering dulcitol accumulation IN VIVO, L” value (dulcitol accumulation; 10 mg/kg, N.S. = not significant) was “N.S”. For the same compound, the “% Lowering dulcitol accumulation IN VIVO, L” value (dulcitol accumulation; 14 mg/kg, N.S. = not significant) was “N.S”, the “% Lowering dulcitol accumulation IN VIVO, L” value (dulcitol accumulation; [4]) was “N.S” and the “% Lowering … Sorbitol (%)” value ([1]; 2 mg/kg) was 38%. For the same compound, the “% Lowering … Sorbitol (%)” value ([1]; 5 mg/kg) was 39%, the “% Lowering … Sorbitol (%)” value ([1]; 10 mg/kg) was 85% and the “% Lowering … Sorbitol (%)” value ([1]; 15 mg/kg) was 85%. The “% Lowering … Fructose (%)” value ([2]; 2 mg/kg) was 22%, the “% Lowering … Fructose (%)” value ([2]; 5 mg/kg) was 36% and the “% Lowering … Fructose (%)” value ([2]; 10 mg/kg) was 72%. For the same compound, the “% Lowering … Fructose (%)” value ([2]; 15 mg/kg) was 86%.

In the case of `COC(=O)N(CC(=O)O)C(=O)c1c(Br)ccc2c(C(F)(F)F)c(OC)ccc12` [Example 5, N-[[2-Bromo-6-methoxy-5-(trifluoromethyl)-1-naphthalenyl]carbonyl]-N-(methoxycarbonyl)glycine], the inhibition at 0.04 µM (aldose reductase) is reported as 54%, the inhibition at 10 µM (aldose reductase) is reported as 97% and the inhibition at 1 µM (aldose reductase) is reported as 92%. For the same compound, the inhibition at 0.1 µM (aldose reductase) was 77%, the “% Lowering dulcitol accumulation IN VIVO, D” value (dulcitol accumulation; 51 mg/kg) was 62% and the “% Lowering dulcitol accumulation IN VIVO, L” value (dulcitol accumulation; 51 mg/kg, N.S. = not significant) was “N.S”.

With `COC(=O)N(CC(N)=O)C(=O)c1c(F)ccc2c(C(F)(F)F)c(OC)ccc12` [Example 2, [[[2-Fluoro-6-methoxy-5-(trifluoromethyl)-1-naphthalenyl]carbonyl](methoxycarbonyl)amino]acetamide] the inhibition at 10 µM (aldose reductase) was 2%, the inhibition at 1 µM (aldose reductase) was 0% and the “% Lowering dulcitol accumulation IN VIVO, D” value (dulcitol accumulation; [5]) was “N.S”. The “% Lowering dulcitol accumulation IN VIVO, D” value (dulcitol accumulation; 10.4 mg/kg) was 23%, the “% Lowering dulcitol accumulation IN VIVO, L” value (dulcitol accumulation; [5]) was “N.S” and the “% Lowering dulcitol accumulation IN VIVO, L” value (dulcitol accumulation; 10.4 mg/kg, N.S. = not significant) was “N.S”.

`CCOC(=O)N(CC(=O)O)C(=O)c1c(Cl)ccc2c(C(F)(F)F)c(OC)ccc12` [Example 8, N-[[2-Chloro-6-methoxy-5-(trifluoromethyl)-1-naphthalenyl]carbonyl]-N-(ethoxycarbonyl)glycine] was tested, and the inhibition at 0.04 µM (aldose reductase) was 47%, the inhibition at 0.1 µM (aldose reductase) was 79% and the “% Lowering dulcitol accumulation IN VIVO, D” value (dulcitol accumulation; 50 mg/kg) was 47%. For the same compound, the “% Lowering dulcitol accumulation IN VIVO, L” value (dulcitol accumulation; 50 mg/kg, N.S. = not significant) was “N.S”.
